Experimental data reported in article PMC9516332 (Frontiers in Oncology, 2022).
Where two headings read alike, the source gives them in different places.

Experiments:
Test in all cases: Kinase panel profiling at 1 µmol/L (MSA or IMAP), percentage inhibition
Format in all cases: biochemical
[1] = molecular target: panel of 255 wild-type kinases (Homo sapiens, UniProt P51617); details: kinase IRAK1; 1 µmol/L single concentration; read-out: %-inhibition at 1 µmol/L, IRAK1
[2] = molecular target: T1, panel of 255 wild-type kinases (Homo sapiens, UniProt Q13976); details: kinase PGK; 1 µmol/L single concentration; read-out: %-inhibition at 1 µmol/L, PGK
T1 sequence (Q13976 1-671): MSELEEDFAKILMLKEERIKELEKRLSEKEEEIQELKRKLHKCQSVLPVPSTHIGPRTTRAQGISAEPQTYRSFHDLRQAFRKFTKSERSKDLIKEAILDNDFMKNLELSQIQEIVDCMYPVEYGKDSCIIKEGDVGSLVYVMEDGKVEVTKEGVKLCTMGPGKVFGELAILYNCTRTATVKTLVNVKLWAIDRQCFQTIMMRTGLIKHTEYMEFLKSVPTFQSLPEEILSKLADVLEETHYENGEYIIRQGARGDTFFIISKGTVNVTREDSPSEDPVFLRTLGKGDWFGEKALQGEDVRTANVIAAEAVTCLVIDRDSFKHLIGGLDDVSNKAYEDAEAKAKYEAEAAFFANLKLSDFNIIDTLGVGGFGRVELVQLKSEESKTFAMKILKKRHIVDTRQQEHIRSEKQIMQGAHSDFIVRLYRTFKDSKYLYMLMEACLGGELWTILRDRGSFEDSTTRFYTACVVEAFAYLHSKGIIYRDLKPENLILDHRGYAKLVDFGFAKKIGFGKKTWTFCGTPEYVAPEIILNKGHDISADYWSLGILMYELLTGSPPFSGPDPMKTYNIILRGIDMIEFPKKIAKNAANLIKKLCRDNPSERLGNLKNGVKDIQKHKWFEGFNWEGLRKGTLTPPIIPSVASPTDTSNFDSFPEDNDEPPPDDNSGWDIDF

[3] = molecular target: panel of 255 wild-type kinases (Homo sapiens, UniProt Q05397); details: read-out: %-inhibition at 1 µmol/L, FAK
[4] = molecular target: T2, panel of 255 wild-type kinases (Homo sapiens, UniProt Q9UF33); details: kinase EPHA6; 1 µmol/L single concentration; read-out: %-inhibition at 1 µmol/L, EPHA6
T2 sequence (Q9UF33 23-1036): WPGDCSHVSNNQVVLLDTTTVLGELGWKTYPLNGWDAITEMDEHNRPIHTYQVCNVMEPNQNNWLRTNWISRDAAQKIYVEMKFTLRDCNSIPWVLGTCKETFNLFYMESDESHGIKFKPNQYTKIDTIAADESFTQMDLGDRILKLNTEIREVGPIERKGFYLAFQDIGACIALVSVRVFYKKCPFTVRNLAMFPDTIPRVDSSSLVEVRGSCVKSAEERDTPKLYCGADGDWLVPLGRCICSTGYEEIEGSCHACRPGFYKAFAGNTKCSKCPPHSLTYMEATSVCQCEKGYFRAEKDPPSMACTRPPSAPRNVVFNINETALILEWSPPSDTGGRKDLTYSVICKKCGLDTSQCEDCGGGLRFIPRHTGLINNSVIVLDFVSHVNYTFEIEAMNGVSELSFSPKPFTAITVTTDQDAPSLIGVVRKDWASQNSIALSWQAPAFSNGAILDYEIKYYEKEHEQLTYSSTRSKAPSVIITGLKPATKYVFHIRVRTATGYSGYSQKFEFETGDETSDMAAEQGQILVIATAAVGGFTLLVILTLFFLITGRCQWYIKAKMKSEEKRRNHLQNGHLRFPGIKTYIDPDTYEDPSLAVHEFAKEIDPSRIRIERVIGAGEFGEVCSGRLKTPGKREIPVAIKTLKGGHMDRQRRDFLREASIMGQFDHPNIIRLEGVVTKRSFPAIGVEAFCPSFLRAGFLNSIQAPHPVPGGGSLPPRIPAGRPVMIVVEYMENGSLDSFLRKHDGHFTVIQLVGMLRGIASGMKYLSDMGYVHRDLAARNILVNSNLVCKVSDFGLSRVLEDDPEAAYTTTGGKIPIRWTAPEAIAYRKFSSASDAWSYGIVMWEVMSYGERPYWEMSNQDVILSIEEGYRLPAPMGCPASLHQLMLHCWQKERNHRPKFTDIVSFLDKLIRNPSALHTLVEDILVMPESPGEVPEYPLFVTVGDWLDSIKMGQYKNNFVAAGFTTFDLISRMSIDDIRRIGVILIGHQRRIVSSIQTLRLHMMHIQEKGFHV

[5] = molecular target: panel of 255 wild-type kinases (Homo sapiens, UniProt Q13464); details: kinase ROCK1; 1 µmol/L single concentration; read-out: %-inhibition at 1 µmol/L, ROCK1
[6] = molecular target: panel of 255 wild-type kinases (Homo sapiens, UniProt Q00526); details: CDK3/CycE1 kinase assay; 1 µmol/L single concentration; read-out: %-inhibition CDK3/CycE1
[7] = molecular target: panel of 255 wild-type kinases (Homo sapiens, UniProt P49761); details: kinase CLK3; 1 µmol/L single concentration; read-out: %-inhibition at 1 µmol/L, CLK3
[8] = molecular target: panel of 255 wild-type kinases (Homo sapiens, UniProt Q9HC98); details: NEK6; 1 µmol/L single concentration; read-out: %-inhibition, NEK6
[9] = molecular target: panel of 255 wild-type kinases (Homo sapiens, UniProt P08581); details: MET; 1 µmol/L single concentration
[10] = molecular target: panel of 255 wild-type kinases (Homo sapiens, UniProt P06213); details: kinase INSR; 1 µmol/L single concentration; read-out: %-inhibition at 1 µmol/L, INSR
[11] = molecular target: panel of 255 wild-type kinases (Homo sapiens, UniProt P43405); details: read-out: %-inhibition at 1 µmol/L, SYK
[12] = molecular target: panel of 255 wild-type kinases (Homo sapiens, UniProt Q13557); details: CaMK2δ kinase assay; 1 µmol/L single concentration; read-out: %-inhibition CaMK2δ
[13] = molecular target: panel of 255 wild-type kinases (Homo sapiens, UniProt P54764); details: kinase EPHA4; 1 µmol/L single concentration; read-out: %-inhibition at 1 µmol/L, EPHA4
[14] = kinase FAK, 1 µmol/L single concentration
[15] = kinase SYK, 1 µmol/L single concentration

## Cc1nc(NC(=O)N2CCC[C@H]2C(N)=O)sc1-c1ccnc(C(C)(C)C(F)(F)F)c1 [alpelisib]
[1]
  inhibition at 1 µM: -5.3%
[2]
  inhibition at 1 µM: -3%
[3]; [14]
  inhibition at 1 µM: 3.69%
[4]
  inhibition at 1 µM: 5.35%
[5]
  inhibition at 1 µM: -0.415%
[6]
  inhibition at 1 µM: -4%
[7]
  inhibition at 1 µM: 22%
[8]
  inhibition at 1 µM: 0.343%
[9]
  inhibition at 1 µM: -1%
[10]
  inhibition at 1 µM: -2.57%
[11]; [15]
  inhibition at 1 µM: -23%
[12]
  inhibition at 1 µM: 0.814%
[13]
  inhibition at 1 µM: -5%

## C=CC(=O)N1CCC([C@@H]2CCNc3c(C(N)=O)c(-c4ccc(Oc5ccccc5)cc4)nn32)CC1 [zanubrutinib]
[1]
  inhibition at 1 µM: -2.53%
[2]
  inhibition at 1 µM: -2.64%
[3]; [14]
  inhibition at 1 µM: 13%
[4]
  inhibition at 1 µM: 14%
[5]
  inhibition at 1 µM: -1.57%
[6]
  inhibition at 1 µM: 2.65%
[7]
  inhibition at 1 µM: -3.73%
[8]
  inhibition at 1 µM: -1%
[9]
  inhibition at 1 µM: -2.35%
[10]
  inhibition at 1 µM: 4%
[11]; [15]
  inhibition at 1 µM: -6.37%
[12]
  inhibition at 1 µM: 3%
[13]
  inhibition at 1 µM: -0.204%

## O=C(Nc1cnn2ccc(N3CCC[C@@H]3c3cc(F)ccc3F)nc12)N1CC[C@H](O)C1 [larotrectinib]
[1]
  inhibition at 1 µM: -0.211%
[2]
  inhibition at 1 µM: -2.33%
[3]; [14]
  inhibition at 1 µM: 4%
[4]
  inhibition at 1 µM: -0.585%
[5]
  inhibition at 1 µM: -5.36%
[6]
  inhibition at 1 µM: 1.79%
[7]
  inhibition at 1 µM: -3.43%
[8]
  inhibition at 1 µM: 0.246%
[9]
  inhibition at 1 µM: -4%
[10]
  inhibition at 1 µM: 2%
[11]; [15]
  inhibition at 1 µM: -8%
[12]
  inhibition at 1 µM: 6%
[13]
  inhibition at 1 µM: -0.0271%

## Cc1cc(Nc2ncnc3ccc(NC4=NC(C)(C)CO4)cc23)ccc1Oc1ccn2ncnc2c1 [tucatinib]
[1]
  inhibition at 1 µM: 4.63%
[2]
  inhibition at 1 µM: 0.26%
[3]; [14]
  inhibition at 1 µM: -1.17%
[4]
  inhibition at 1 µM: 2.19%
[5]
  inhibition at 1 µM: -0.767%
[6]
  inhibition at 1 µM: -3.48%
[7]
  inhibition at 1 µM: 5.42%
[8]
  inhibition at 1 µM: 0.486%
[9]
  inhibition at 1 µM: 5.33%
[10]
  inhibition at 1 µM: 3%
[11]; [15]
  inhibition at 1 µM: -0.549%
[12]
  inhibition at 1 µM: -3%
[13]
  inhibition at 1 µM: -2.34%

## Cn1cnc2c(F)c(Nc3ccc(Br)cc3F)c(C(=O)NOCCO)cc21 [binimetinib]
[1]
  inhibition at 1 µM: 2.19%
[2]
  inhibition at 1 µM: -3%
[3]; [14]
  inhibition at 1 µM: -1.33%
[4]
  inhibition at 1 µM: 2.34%
[5]
  inhibition at 1 µM: -7%
[6]
  inhibition at 1 µM: -4.57%
[7]
  inhibition at 1 µM: 0.514%
[8]
  inhibition at 1 µM: -2.65%
[9]
  inhibition at 1 µM: 0.851%
[10]
  inhibition at 1 µM: 6%
[11]; [15]
  inhibition at 1 µM: -19%
[12]
  inhibition at 1 µM: -4%
[13]
  inhibition at 1 µM: 7.56%

## COC(=O)N[C@@H](C)CNc1nccc(-c2cn(C(C)C)nc2-c2cc(Cl)cc(NS(C)(=O)=O)c2F)n1 [encorafenib]
[1]
  inhibition at 1 µM: 21%
[2]
  inhibition at 1 µM: -1.28%
[3]; [14]
  inhibition at 1 µM: -3%
[4]
  inhibition at 1 µM: 17%
[5]
  inhibition at 1 µM: 0.403%
[6]
  inhibition at 1 µM: -2%
[7]
  inhibition at 1 µM: 4.44%
[8]
  inhibition at 1 µM: -2.36%
[9]
  inhibition at 1 µM: 2.82%
[10]
  inhibition at 1 µM: 9%
[11]; [15]
  inhibition at 1 µM: -20%
[12]
  inhibition at 1 µM: -2.79%
[13]
  inhibition at 1 µM: 10%

## COc1ccc(CN2C3CC2CN(c2ccc(-c4cc(OCC(C)(C)O)cn5ncc(C#N)c45)cn2)C3)cn1 [selpercatinib]
[1]
  inhibition at 1 µM: 5%
[2]
  inhibition at 1 µM: 0.302%
[3]; [14]
  inhibition at 1 µM: 10%
[4]
  inhibition at 1 µM: 98%
[5]
  inhibition at 1 µM: 3.51%
[6]
  inhibition at 1 µM: 3.49%
[7]
  inhibition at 1 µM: 0.425%
[8]
  inhibition at 1 µM: 0.41%
[9]
  inhibition at 1 µM: 23%
[10]
  inhibition at 1 µM: 1.51%
[11]; [15]
  inhibition at 1 µM: 7.5%
[12]
  inhibition at 1 µM: 1.36%
[13]
  inhibition at 1 µM: 58%

## Cn1cnc2c(F)c(Nc3ccc(Br)cc3Cl)c(C(=O)NOCCO)cc21 [selumetinib]
[1]
  inhibition at 1 µM: -2.71%
[2]
  inhibition at 1 µM: -2%
[3]; [14]
  inhibition at 1 µM: -1.9%
[4]
  inhibition at 1 µM: 1%
[5]
  inhibition at 1 µM: -1.15%
[6]
  inhibition at 1 µM: -9%
[7]
  inhibition at 1 µM: 7.48%
[8]
  inhibition at 1 µM: -1.5%
[9]
  inhibition at 1 µM: -0.807%
[10]
  inhibition at 1 µM: 3%
[11]; [15]
  inhibition at 1 µM: -12%
[12]
  inhibition at 1 µM: -3%
[13]
  inhibition at 1 µM: -2.57%

## CCc1nc(C(N)=O)c(Nc2ccc(N3CCC(N4CCN(C)CC4)CC3)c(OC)c2)nc1NC1CCOCC1 [gilteritinib]
[1]
  inhibition at 1 µM: 84%
[2]
  inhibition at 1 µM: 41%
[3]
  inhibition at 1 µM: 81%
[4]
  inhibition at 1 µM: 94%
[5]
  inhibition at 1 µM: 60%
[6]
  inhibition at 1 µM: 7%
[7]
  inhibition at 1 µM: 7%
[8]
  inhibition at 1 µM: -2%
[9]
  inhibition at 1 µM: 90%
[10]
  inhibition at 1 µM: 100%
[11]; [15]
  inhibition at 1 µM: 70%
[12]
  inhibition at 1 µM: 84%
[13]
  inhibition at 1 µM: 36%

## CCN1C(=O)N(c2c(F)c(OC)cc(OC)c2F)Cc2cnc3[nH]c(CN4CCOCC4)cc3c21 [pemigatinib]
[1]
  inhibition at 1 µM: -5.31%
[2]
  inhibition at 1 µM: -1.82%
[3]; [14]
  inhibition at 1 µM: 5.32%
[4]
  inhibition at 1 µM: -3%
[5]
  inhibition at 1 µM: -2.6%
[6]
  inhibition at 1 µM: 11%
[7]
  inhibition at 1 µM: -1%
[8]
  inhibition at 1 µM: -2.6%
[9]
  inhibition at 1 µM: -2.49%
[10]
  inhibition at 1 µM: 9%
[11]; [15]
  inhibition at 1 µM: -4.26%
[12]
  inhibition at 1 µM: 11%
[13]
  inhibition at 1 µM: -1.83%

## Cn1cc(-c2cc3c(N4CCN(c5ncc([C@@](C)(N)c6ccc(F)cc6)cn5)CC4)ncnn3c2)cn1 [avapritinib]
[1]
  inhibition at 1 µM: 8%
[2]
  inhibition at 1 µM: -2.58%
[3]; [14]
  inhibition at 1 µM: -2.5%
[4]
  inhibition at 1 µM: 7%
[5]
  inhibition at 1 µM: 2%
[6]
  inhibition at 1 µM: -2.7%
[7]
  inhibition at 1 µM: 3.76%
[8]
  inhibition at 1 µM: -1.13%
[9]
  inhibition at 1 µM: 16%
[10]
  inhibition at 1 µM: 4.71%
[11]
  inhibition at 1 µM: 44%
[12]
  inhibition at 1 µM: -2.56%
[13]
  inhibition at 1 µM: 35%
